For two molecules, efflux ratio, Papp A→B and Papp B→A results are on record in patent publication US12428433B2, “Fluorine-containing heterocyclic derivatives with macrocyclic structure and use thereof” (ScinnoHub Pharmaceutical Co., Ltd, priority 2019, dated 2025).

Usually Papp A→B stands for the apparent permeability from the apical to the basolateral side of a cell layer. Broadly, the Papp B→A is the apparent permeability from the basolateral to the apical side of a cell layer.

The subject of the data set is MDR1 (P-gp). The experiment in a line: Bidirectional permeability study on MDCK-MDR1 cell line. Type of data set: in vitro ADME. The following applies: dog; for efflux ratio at 2 h, 1 μM: MDCK-MDR1, pH 7.4, read-out: Excretion ratio = Papp (B-A)/Papp (A-B); for Papp A→B at 2 h, 1 μM / Papp B→A at 2 h, 1 μM: pH 7.4, MDCK-MDR1, 1 μM. As for the experimental part:
MDCK-MDR1 cells were purchased from Netherlands Cancer Institute, and cells between 10 and 20 generations were used.
1) Before cell inoculation, 50 μL of cell medium was added into each well of an upper chamber of Transwell, and […] of cell medium was added into a lower culture plate. The culture plate was placed in an incubator at 37° C. under 5% CO2 for incubation for 1 hour, and then could be used for inoculating cells.
2) The MDCK-MDR1 cells were resuspended with the medium, so that a final concentration was 1.56×10^6 cells/mL. A cell suspension was added into an upper chamber of a 96-well Transwell culture plate according to 50 μL per well. The incubator was set at 37° C. under 5% CO2, and was ensured to have a relative humidity of 95% for culturing for 4 days to 8 days. The medium was replaced 48 hours after inoculation, the culturing lasted for 4 days to 8 days, and the medium was replaced every other day.
4) Calculation of resistance value: measured resistance value (ohms)×film area (cm^2)=TEER value (ohm cm^2), and if the TEER value was less than 42 ohms cm^2, the well could not be used for a penetration experiment.
1) The MDCK-MDR1 Transwell culture plate was taken from the incubator. The cell monolayer film was moistened and washed twice with a preheated HBSS (25 mM HEPES, pH 7.4) buffer, and incubated at 37° C. for 30 minutes.
2) A stock solution of the control compound and the test compound was diluted in DMSO to obtain a 200 μM solution, and then diluted with HBSS (10 mM HEPES, pH 7.4) to obtain a 1 μM working solution. A final concentration of DMSO in the incubation system was 0.5%.
3) A transfer rate of the compound from a top end to a base end was measured. 125 μL of working solution was added into the upper chamber (top end), then 50 μL of sample solution was immediately transferred from a lower chamber (base end) to a 96-well plate filled with 200 μL of acetonitrile containing an internal standard as a 0-minute administration sample (A-B) for detection, and 235 μL of HBSS (25 mM HEPES, pH 7.4) buffer was added into the lower chamber. The internal standard contained 100 nM alprazolam, 200 nM caffeine and 100 nM tolbutamide. The 50 μL of sample solution transferred above was vortexed at a speed of 1,000 rpm for 10 minutes.
4) A transfer rate of the compound from the base end to the top end was measured. 285 μL of working solution was added into the lower chamber (base end), then 50 μL of sample solution was immediately transferred from the upper chamber (top end) to a 96-well plate filled with 200 μL of acetonitrile containing an internal standard as a 0-minute administration sample (B-A) for detection, and 75 μL of HB SS (25 mM HEPES, pH 7.4) buffer was added into the upper chamber. The internal standard contained 100 nM alprazolam, 200 nM caffeine and 100 nM tolbutamide. The 50 μL of sample solution transferred above was vortexed at a speed of 1,000 rpm for 10 minutes. The experiment from the top end to the base end and the experiment from the base end to the top end should be carried out simultaneously.
5) After adding the buffers into the lower chamber and the upper chamber respectively, the MDCK-MDR1 Transwell culture plate was incubated at 37° C. for 2 hours.
6) After finishing incubating, 50 μL of sample solutions were respectively taken from an administration side (the upper chamber: Ap→Bl flux, the lower chamber: Bl→Ap) and a receiving side (the lower chamber: Ap→Bl flux, the upper chamber Bl→Ap) and added into new 96-well plates, and 4 times volume of […] containing the internal standard was added into the well plates. The internal standard substance contained 100 nM alprazolam, 200 nM caffeine and 100 nM tolbutamide. The solution was vortexed for 10 minutes, and then centrifuged at 3,220 g for 40 minutes. 100 μL of supernatant was sucked and mixed with equal volume of ultrapure water, and then subjected to LC-MS/MS analysis. […]

Consider `C[C@H]1Nc2ccn3ncc(c3n2)C(=O)N[C@H]2C[C@H](C2)Oc2ncc(F)cc21` [Positive control 2, reference compound], for which the efflux ratio at 2 h, 1 μM was found to be 19.4; the Papp A→B at 2 h, 1 μM was 3.31 ×10⁻⁶ cm/s; the Papp B→A at 2 h, 1 μM came out at 64.4 ×10⁻⁶ cm/s.
The corresponding values for `C[C@H]1Nc2nc3c(cnn3cc2F)C(=O)N[C@H]2C[C@H](C2)Oc2ncc(F)cc21` [Example 3, (3^1S,3^3S,6^3E,6^4E,8R)-1^5,6^6-difluoro-8-methyl-2-oxo-4,7-diaza-6(3,5)-pyrazolo[1,5-a]pyrimidine-1(2,3)-pyridine-3(1,3)-cyclobutylcyclooctane-5-one] are 4.67, 11.1 ×10⁻⁶ cm/s and 51.9 ×10⁻⁶ cm/s.
